Results: US9204653B2, “5-fluoro pyrimidine derivatives” (DOW AGROSCIENCES LLC, priority 2008, dated 2015)
Like-named read-outs stand apart in the source and are kept apart here.

System: Mycosphaerella graminicola; Anamorph: Septoria tritici; Bayer Code SEPTTR
Test: Leaf blotch of wheat, foliar fungicide treatment, one day protectant (1DP) or three day curative (3DC)
Type: in vivo, Septoria tritici on wheat plants (variety Yuma)
Conditions: Zymoseptoria tritici, percent control rating; for pest or weed control at 100 ppm: read-out: SEPTTR 3DC 100 ppm
[1] = 24 h, one day protectant (1DP), 25 ppm (first 1DP column), read-out: SETTTR 1DP 25 ppm
[2] = 24 h, one day protectant (1DP), 25 ppm as printed (second 1DP column), read-out: SETTTR 1DP 25 ppm
[3] = 72 h, three day curative (3DC), 25 ppm, read-out: SEPTTR 3DC 25 ppm

Row | Structure (SMILES) | pest or weed control at 25 ppm [1] | pest or weed control at 25 ppm [2] | pest or weed control at 25 ppm [3] | pest or weed control at 100 ppm (72 h, three day curative (3DC))
1 | COc1ccc(/C(C)=N/Nc2nc(OC)ncc2F)cc1 [Compound 1017] | 0 to 25% | 26 to 50% | 0 to 25% | 51 to 75%
2 | CCC(C)/C(C)=N/Nc1nc(OC)ncc1F (stereo not drawn) [Compound 1018] | 0 to 25% | 0 to 25% | 0 to 25% | 0 to 25%
3 | COc1ncc(F)c(N/N=C(\C)c2cc3ccccc3o2)n1 [Compound 1019] | 26 to 50% | 26 to 50% | 0 to 25% | 0 to 25%
4 | COc1ncc(F)c(N/N=C/c2cc(C)nn2C)n1 [Compound 1020] | 0 to 25% | 0 to 25% | 26 to 50% | 0 to 25%
5 | CCC(/C=N/Nc1nc(OC)ncc1F)CC [Compound 1021] | 0 to 25% | 26 to 50% | 26 to 50% | 26 to 50%
6 | COc1ncc(F)c(N/N=C/C2CC2)n1 [Compound 1022] | 0 to 25% | 0 to 25% | 0 to 25% | 26 to 50%
7 | COc1ncc(F)c(N/N=C/c2ccco2)n1 [Compound 1023] | 0 to 25% | 0 to 25% | 0 to 25% | 0 to 25%
8 | COc1ncc(F)c(N/N=C/c2cccs2)n1 [Compound 1024] | 0 to 25% | 0 to 25% | 0 to 25% | 0 to 25%
9 | COc1ncc(F)c(N/N=C(\C)c2sc(C)nc2C)n1 [Compound 1025] | 0 to 25% | 0 to 25% | 26 to 50% | 0 to 25%
10 | COc1ncc(F)c(N/N=C(\C)c2ccc(F)cc2)n1 [Compound 1026] | 26 to 50% | 26 to 50% | 0 to 25% | 26 to 50%
11 | Cc1ccc(COc2ncc(F)c(NS(=O)(=O)c3c(Br)cnn3C)n2)cc1 [Compound 1027] | 0 to 25% | 0 to 25% | 0 to 25% | 0 to 25%
12 | Fc1ccccc1NNc1nc(OCc2ccccc2)ncc1F [Compound 1028] | 0 to 25% | 0 to 25% | 0 to 25% | 0 to 25%
13 | Fc1cnc(OCc2ccccc2)nc1NNc1cccc(C(F)(F)F)c1 [Compound 1029] | 0 to 25% | 0 to 25% | 0 to 25% | 0 to 25%
14 | Cc1ccc(COc2ncc(F)c(NNc3ccc(Br)cc3)n2)cc1 [Compound 1030] | 0 to 25% | 0 to 25% | 0 to 25% | 0 to 25%
15 | COc1cccc(COc2ncc(F)c(NNc3cc(C)nc(C)n3)n2)c1 [Compound 1032] | 26 to 50% | 26 to 50% | 0 to 25% | 0 to 25%
16 | C/C=C(C)/C=N/Nc1nc(OC)ncc1F [Compound 1033] | 0 to 25% | 0 to 25% | 0 to 25% | 26 to 50%
17 | COc1ncc(F)c(NNc2ccccc2Cl)n1 [Compound 1034] | 0 to 25% | 0 to 25% | 0 to 25% | 0 to 25%
18 | Fc1cnc(OCc2ccccc2)nc1NNc1ccc(Br)cc1 [Compound 1035] | 0 to 25% | 0 to 25% | 0 to 25% | 0 to 25%
19 | Cc1ccc(C)c(NNc2nc(OCc3ccccc3)ncc2F)c1 [Compound 1036] | 0 to 25% | 0 to 25% | 0 to 25% | 0 to 25%
20 | Fc1cnc(OCc2ccccc2)nc1NNc1ccc(Cl)c(Cl)c1 [Compound 1037] | 0 to 25% | 26 to 50% | 0 to 25% | 0 to 25%
21 | Fc1cnc(OCc2ccccc2)nc1NNc1nccc(C(F)(F)F)n1 [Compound 1038] | 0 to 25% | 0 to 25% | 0 to 25% | 0 to 25%
22 | Cc1ccc(COc2ncc(F)c(NNc3ccccc3F)n2)cc1 [Compound 1039] | 0 to 25% | 0 to 25% | 0 to 25% | 0 to 25%
23 | Cc1ccc(COc2ncc(F)c(NNc3ccc(Cl)nn3)n2)cc1 [Compound 1040] | 0 to 25% | 0 to 25% | 0 to 25% | 0 to 25%

Row | Structure (SMILES) | pest or weed control at 25 ppm [1] | pest or weed control at 25 ppm [2] | pest or weed control at 25 ppm [3] | pest or weed control at 100 ppm (72 h, three day curative (3DC))
24 | Cc1ccc(COc2ncc(F)c(NNc3nccc(C(F)(F)F)n3)n2)cc1 [Compound 1041] | 0 to 25% | 0 to 25% | 0 to 25% | 0 to 25%
25 | Fc1ccc(COc2ncc(F)c(NNc3ccccc3F)n2)cc1 [Compound 1042] | 0 to 25% | 0 to 25% | 0 to 25% | 26 to 50%
26 | Fc1ccc(COc2ncc(F)c(NNc3nccc(C(F)(F)F)n3)n2)cc1 [Compound 1043] | 0 to 25% | 0 to 25% | 0 to 25% | 0 to 25%
27 | Fc1ccc(COc2ncc(F)c(NNc3nc4ccccc4s3)n2)cc1 [Compound 1044] | 0 to 25% | 0 to 25% | 0 to 25% | 0 to 25%
28 | COc1cccc(COc2ncc(F)c(NNc3nccc(C(F)(F)F)n3)n2)c1 [Compound 1045] | 0 to 25% | 0 to 25% | 0 to 25% | 0 to 25%
29 | COc1cccc(COc2ncc(F)c(NNc3nc4ccccc4s3)n2)c1 [Compound 1046] | 0 to 25% | 0 to 25% | 0 to 25% | 0 to 25%
30 | Fc1ccc(COc2ncc(F)c(NNc3cccc(F)n3)n2)cc1 [Compound 1047] | 0 to 25% | 0 to 25% | 26 to 50% | 26 to 50%
31 | COc1ncc(F)c(NNc2ccc(Cl)nn2)n1 [Compound 1048] | 0 to 25% | 0 to 25% | 0 to 25% | 0 to 25%
32 | COc1ncc(F)c(NNc2nccc(C(F)(F)F)n2)n1 [Compound 1049] | 0 to 25% | 0 to 25% | 26 to 50% | 26 to 50%
33 | COc1ncc(F)c(NNc2ccccn2)n1 [Compound 1050] | 0 to 25% | 0 to 25% | 0 to 25% | 26 to 50%
34 | COc1ncc(F)c(NNc2ncnc3ccccc23)n1 [Compound 1051] | 0 to 25% | 0 to 25% | 26 to 50% | 0 to 25%
35 | COc1ncc(F)c(NNc2ccccc2OC)n1 [Compound 1052] | 0 to 25% | 0 to 25% | 0 to 25% | 0 to 25%
36 | COc1ncc(F)c(NOCc2ccco2)n1 [Compound 1053] | 0 to 25% | 0 to 25% | 0 to 25% | 0 to 25%
37 | COc1ncc(F)c(N(O)Cc2ccc(Cl)nc2)n1 [Compound 1054] | 0 to 25% | 0 to 25% | 0 to 25% | 0 to 25%
38 | COc1ncc(F)c(NNc2c(Cl)cccc2Cl)n1 [Compound 1055] | 0 to 25% | 0 to 25% | 0 to 25% | 0 to 25%
39 | CNN(C)c1nc(OC)ncc1F [Compound 1056] | 0 to 25% | 0 to 25% | 26 to 50% | 26 to 50%
40 | CONc1nc(OC)ncc1F [Compound 1058] | 0 to 25% | 0 to 25% | 0 to 25% | 0 to 25%
41 | C=CCOc1ncc(F)c(NN)n1 [Compound 1059] | 0 to 25% | 0 to 25% | 0 to 25% | 26 to 50%
42 | C=CCOc1ncc(F)c(N/N=C(\C)c2ccc(F)cc2)n1 [Compound 1060] | 0 to 25% | 0 to 25% | 0 to 25% | 0 to 25%
43 | C=CCOc1ncc(F)c(N/N=C(\C)c2ccc(Cl)s2)n1 [Compound 1061] | 26 to 50% | 0 to 25% | 0 to 25% | 0 to 25%
44 | C=CCOc1ncc(F)c(N/N=C/C2CC2)n1 [Compound 1062] | 0 to 25% | 0 to 25% | 0 to 25% | 0 to 25%
45 | C=CCOc1ncc(F)c(N/N=C/C(C)=C/C)n1 [Compound 1063] | 0 to 25% | 0 to 25% | 0 to 25% | 0 to 25%
